Results: patent US20050118675A1, “Heptahelix receptor and its use as leukotriene B4 receptor” (Owman Investment Ltd., priority 1997, published 2005)
Entries after “also recorded” stand apart in the source; their conditions may differ.

Tests used:
CMKRL1 [1] = target: T1, CMKRL1 (Homo sapiens, UniProt Q15722); experiment: Intracellular calcium (Fura-2) in CHO cells stably expressing CMKRL1; type: cell-based; conditions: 1000 nM LTB4
T1 construct: A full-length cDNA (Lyme21-9) encoding a novel putative seven-transmembrane (7TM) domain receptor, named CMKRL1; expressed in transfected cells
Method: (§1) Intact plasmid DNA (10-25 μg) of the cDNA clone, Lyme21-9 (1), was transfected using the calcium phosphate precipitation method. Chinese hamster ovary cells (CHO-K1) were used to establish stable expression of the corresponding receptor, CMKRL1. The pCDneo vector was co-transfected to allow for selection with G-418)Geneticin, 500 μg/ml). Single resistant colonies were isolated to obtain homogenous cell lines, and appropriate expression of the corresponding mRNA were verified by Northern blot hybridization with cDNA probes. SV40 transformed African green monkey kidney cells (COS-7) were used for transient expression. These cells were harvested after 48 hrs for preparation and isolation of membranes. Sham-transfected cells were used as controls throughout. […]
Agonists were added in 50 μl of extracellular medium buffer and mixed thoroughly with the original contents of the well. Fluorescence images were obtained by alternate excitation at 340 and 380 nm, and the emitted light was measured at 510 nm. The software configuration allowed for storage of fluorescence information from groups of cells, which could then be analyzed separately. Intracellular calcium concentrations were calibrated using the method described by William and Fay (5) and calculated from the aforementioned radiometric images using the mathematical relationship described by Grynkiewicz et al. (6). […]

[2] = tested on: sham-transfected control cells; experiment: Intracellular calcium (Fura-2) in sham-transfected CHO control cells; type: cell-based, Chinese hamster; conditions: any dose level, shown for 1000 nM
Method: as §1, with “expression.” for “expression. These cells were harvested after 48 hrs for preparation and isolation of membranes. Sham-transfected cells were used as controls throughout.”
Transfected cells were seeded into 96-well plates (Corning-Costar) by dissociating confluent cultures using PBS containing 2 mM EDTA, diluting the resulting suspension 20×, and adding 50 μl per well. […] After 3 washes in extracellular medium buffer (135 mM NaCl, 4.6 mM KCl, 1.2 MM MgCl2, 1.5 mM CaCl2, 11 mM glucose, 11 mM Hepes, pH 7.4), the plates were mounted on the stage of a Nikon inverted fluorescence microscope attached to an SIT-camera and an image analysis system (Photon Technology International). […]
Agonists were added in 50 μl of extracellular medium buffer and mixed thoroughly with the original contents of the well. Fluorescence images were obtained by alternate excitation at 340 and 380 nm, and the emitted light was measured at 510 nm. […]

[3] = tested on: sham-transfected COS-7 cells; experiment: [3H]LTB4 binding to membranes from sham-transfected COS-7 cells; design: species or system African green monkey
Method: (§2) Intact plasmid DNA (10-25 μg) of the cDNA clone, Lyme21-9 (1), was transfected using the calcium phosphate precipitation method. Chinese hamster ovary cells (CHO-K1) were used to establish stable expression of the corresponding receptor, CMKRL1. The pCDneo vector was co-transfected to allow for selection with G-418)Geneticin, 500 μg/ml). Single resistant colonies were isolated to obtain homogenous cell lines, and appropriate expression of the corresponding mRNA were verified by Northern blot hybridization with cDNA probes. SV40 transformed African green monkey kidney cells (COS-7) were used for transient expression. These cells were harvested after 48 hrs for preparation and isolation of membranes. Sham-transfected cells were used as controls throughout.
The transiently transfected COS-7 cells were washed with PBS, which was replaced with 50 mM TRIS/HCl buffer (pH 7.4) containing 1 mM EGTA and 5 mM MgCl2, and scraped off. After homogenization for 20 sec in a Polytron homogenizer (Brinkmann, setting 5.5) the material was centrifuged at 20,000 rpm for 30 min at 4° C., followed by washing through homogenization in the TRIS binding buffer and subsequent recentrifugation, which was repeated twice. The pellet was finally resuspended by homogenization and stored in liquid nitrogen until used. […]

CMKRL1 [4] = target: T1, CMKRL1; experiment: [3H]LTB4 saturation binding to membranes from COS-7 cells transiently transfected with Lyme21-9 cDNA; conditions: for Bmax: Scatchard analysis, COS-7 membranes, 4° C.; for binding sites identified: saturation binding, linear Scatchard plot
Method: as §2
The transiently transfected COS-7 cells were washed with PBS, which was replaced with 50 mM TRIS/HCl buffer (pH 7.4) containing 1 mM EGTA and 5 mM MgCl2, and scraped off. After homogenization for 20 sec in a Polytron homogenizer (Brinkmann, setting 5.5) the material was centrifuged at 20,000 rpm for 30 min at 4° C., followed by washing through homogenization in the TRIS binding buffer and subsequent recentrifugation, which was repeated twice. The pellet was finally resuspended by homogenization and stored in liquid nitrogen until used. For the binding studies, membrane material corresponding to 30 μg protein ([…]) was blended with ice-cold binding buffer (0.02 M Hepes buffer containing 10 mM CaCl2 and MgCl2) to a final volume of 70 μl and added to wells in a 96-well polypropylene plate. […] Each data point is the result of the mean of triplicate wells from three separate experiments, which have in turn been averaged.

T1 sequence (Q15722 whole entry): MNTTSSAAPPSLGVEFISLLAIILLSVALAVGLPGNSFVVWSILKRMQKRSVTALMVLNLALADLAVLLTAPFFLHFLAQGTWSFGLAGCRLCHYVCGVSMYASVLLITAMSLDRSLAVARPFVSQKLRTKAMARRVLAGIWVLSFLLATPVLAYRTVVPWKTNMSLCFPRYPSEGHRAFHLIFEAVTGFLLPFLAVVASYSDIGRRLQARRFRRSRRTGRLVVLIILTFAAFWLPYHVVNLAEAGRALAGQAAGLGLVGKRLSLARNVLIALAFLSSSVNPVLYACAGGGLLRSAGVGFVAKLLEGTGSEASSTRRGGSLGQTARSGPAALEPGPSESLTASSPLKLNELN

CCCCC/C=C\C[C@@H](O)/C=C/C=C/C=C\[C@@H](O)CCCC(=O)O [LTB4, leukotriene B4]
increase in intracellular calcium in calcium-free medium (CMKRL1 [1]): no longer included any significant increase; also recorded: No response
effect on intracellular calcium in sham-transfected control cells [2]: completely without effect; also recorded: No response; also recorded: No binding or activation
specific binding [3]: No binding

CCCCC/C=C\C[C@@H](O)/C=C/C=C\C=C\[C@@H](O)CCCC(=O)O [[^3H]LTB4]
specific binding [3]: no specific binding
Bmax (CMKRL1 [4]): 17.0 ± 2.0 pmoles/mg protein
Bmax (CMKRL1 [4]; listed as tritiated LTB4): 17.0 pmoles/mg protein
Non-specific binding as share of the total binding (CMKRL1 [4]; binding of tritiated ligand in the presence of 1 μM non-labelled ligand): less than 15%
binding sites identified (CMKRL1 [4]): single class of high-affinity binding sites
binding sites identified (CMKRL1 [4]; listed as tritiated LTB4): binds with high affinity to a single receptor population
